# In patent publication US20060167109A1, “Methods of reducing rhinovirus contagion and related compositions” (priority 2002, published 2006):
# How the values were obtained:
# Experiment in all cases: HRV cytopathic effect assay
# Format in all cases: cell-based
# Conditions in all cases: Human rhinovirus sp.
# [1] = tested on: HRV serotype 1A
# Description: (§1) For sensitivity testing to pleconaril, the appropriate cells were seeded into 96 well plates at a concentration of 4×10^4/well. After an overnight incubation at 37° C., the medium was removed and the cells were infected with 150 μL of a dilution of virus previously titrated to give ≧85% lysis of the monolayer after 3 days of incubation. The plates were incubated for 1 hour at the appropriate temperature and then overlaid with 50 μL of medium containing serial 2-fold dilutions of pleconaril in 2% DMSO. The final DMSO concentration in the assay was always 0.5%. No virus and no pleconaril controls were included on each plate. All drug concentrations were run in quadruplicate. The plates were then incubated for 3 days at the appropriate temperature followed by processing as described above.
# [2] = tested on: HRV serotype 31
# Description: as §1
# [3] = tested on: HRV serotype 15
# Description: as §1
# [4] = tested on: HRV serotype 57
# Description: as §1
# [5] = tested on: HRV serotype 2
# Description: as §1
# [6] = tested on: HRV serotype 25
# Description: as §1
# [7] = tested on: HRV serotype 33
# Description: as §1
# [8] = tested on: HRV serotype 52
# Description: as §1
# [9] = tested on: HRV serotype 65
# Description: as §1
# [10] = tested on: HRV serotype 36
# Description: as §1
# [11] = tested on: HRV serotype 32
# Description: as §1
# [12] = tested on: HRV serotype 4
# Description: as §1
# [13] = tested on: HRV serotype 76
# Description: as §1
# [14] = tested on: HRV serotype 54
# Description: as §1
# [15] = tested on: HRV serotype 96
# Description: as §1
# [16] = tested on: HRV serotype 70
# Description: as §1
# [17] = tested on: HRV serotype 44
# Description: as §1
# [18] = tested on: HRV serotype 21
# Description: as §1
# [19] = tested on: HRV serotype 39
# Description: as §1
# [20] = tested on: HRV serotype 6
# Description: as §1
# [21] = tested on: HRV serotype 8
# Description: as §1
# [22] = tested on: HRV serotype 27
# Description: as §1
# [23] = tested on: HRV serotype 77
# Description: as §1
# [24] = tested on: HRV serotype 90
# Description: as §1
# [25] = tested on: HRV serotype 37
# Description: as §1
# [26] = tested on: HRV serotype 50
# Description: as §1
# [27] = tested on: HRV serotype 17
# Description: as §1
# [28] = tested on: HRV serotype 51
# Description: as §1
# [29] = tested on: HRV serotype 98
# Description: as §1
# [30] = tested on: HRV serotype 67
# Description: as §1
# [31] = tested on: HRV serotype 99
# Description: as §1
# [32] = tested on: HRV serotype 61
# Description: as §1
# [33] = tested on: HRV serotype 38
# Description: as §1
# [34] = tested on: HRV serotype 78
# Description: as §1
# [35] = tested on: HRV serotype 1B
# Description: as §1
# [36] = tested on: HRV serotype 82
# Description: as §1
# [37] = tested on: HRV serotype 3
# Description: as §1
# [38] = tested on: HRV serotype 23
# Description: as §1
# [39] = tested on: HRV serotype 95
# Description: as §1
# [40] = tested on: HRV serotype 45
# Description: as §1
# [41] = tested on: HRV serotype 48
# Description: as §1
# [42] = tested on: HRV serotype 73
# Description: as §1
# [43] = tested on: HRV serotype 64
# Description: as §1
# [44] = tested on: HRV serotype 41
# Description: as §1
smiles,measurement,setting,value
"Cc1cc(CCCOc2c(C)cc(-c3noc(C(F)(F)F)n3)cc2C)on1 [pleconaril, 3-[3,5-dimethyl-4-[3-(3-methyl-5-isoxazolyl)propoxy]phenyl]-5-(trifluoromethyl)-1,2,4-oxadiazole]",IC50,"[1]; HRV1A, Table 2, mean of at least two independent determinations",430 ± 170 nM
same,IC50,[1]; serotype 1A,430 ± 170 nM
same,IC50,[2],130 ± 70 nM
same,IC50,[3],590 ± 290 nM
same,IC50,[4],170 ± 50 nM
same,IC50,"[5]; HRV2, Table 2, mean of at least two independent determinations",30 ± 30 nM
same,IC50,[5]; serotype 2,30 ± 30 nM
same,IC50,[6],100 ± 10 nM
same,IC50,[7],160 ± 30 nM
same,IC50,[8],2490 ± 1210 nM
same,IC50,[9],330 ± 100 nM
same,IC50,[10],110 ± 20 nM
same,IC50,[11],330 ± 130 nM
same,IC50,[12],> 12500 nM
same,IC50,[13],240 ± 290 nM
same,IC50,[14],460 ± 110 nM
same,IC50,[15],90 ± 50 nM
same,IC50,[16],300 ± 190 nM
same,IC50,[17],110 ± 70 nM
same,IC50,[18],40 ± 10 nM
same,IC50,[19],10 nM
same,IC50,[20],60 ± 20 nM
same,IC50,[21],3420 ± 2700 nM
same,IC50,[22],5900 ± 1900 nM
same,IC50,[23],550 ± 290 nM
same,IC50,[24],190 ± 60 nM
same,IC50,[25],60 ± 20 nM
same,IC50,"[26]; HRV50, Table 2, mean of at least two independent determinations",350 ± 70 nM
same,IC50,[26]; serotype 50,350 ± 70 nM
same,IC50,[27],230 ± 80 nM
same,IC50,[28],50 ± 30 nM
same,IC50,[29],1800 ± 1620 nM
same,IC50,[30],250 ± 110 nM
same,IC50,[31],> 12500 nM
same,IC50,[32],210 ± 80 nM
same,IC50,[33],100 ± 40 nM
same,IC50,[34],80 ± 40 nM
same,IC50,[35],160 ± 30 nM
same,IC50,[36],220 ± 190 nM
same,IC50,"[37]; HRV3, Table 2, mean of at least two independent determinations",90 ± 40 nM
same,IC50,[37]; serotype 3,90 ± 40 nM
same,IC50,[38],320 ± 10 nM
same,IC50,[39],810 ± 510 nM
same,IC50,[40],4300 ± 1830 nM
same,IC50,[41],1800 ± 630 nM
same,IC50,[42],210 ± 90 nM
same,IC50,[43],320 ± 240 nM
same,IC50,[44],1750 ± 1490 nM
